The source of these data is ChEMBL document CHEMBL2086335, “Three new 12-carbamoylated streptothricins from Streptomyces sp. I08A 1776” (2012).

As usually defined, the MIC is the least concentration at which growth counts as inhibited. The low end stands for a more susceptible organism, the high end for a less susceptible organism.

≈ marks a conversion by molar mass, not a printed value.

Common to all, as to type: functional
For experiment [1], the system named is Mycobacterium tuberculosis. Put plainly: Antibacterial activity against drug-resistant Mycobacterium tuberculosis 926 by microbroth dilution method. On the technique in general: Broth dilution looks for growth in wells or tubes with falling amounts of substance.
Experiment [2] relates to Mycobacterium tuberculosis. The experiment in a line: Antibacterial activity against drug-resistant Mycobacterium tuberculosis 164 by microbroth dilution method.
For experiment [3], the system named is Mycobacterium tuberculosis. The experiment in a line: Ratio of rifampicin MIC to compound MIC for extensively drug-resistant Mycobacterium tuberculosis.
The subject of experiment [4] is Mycobacterium tuberculosis. Put plainly: Ratio of isoniazid MIC to compound MIC for extensively drug-resistant Mycobacterium tuberculosis.

Take `NCCC[C@H](N)CC(=O)NCCC[C@H](N)CC(=O)N[C@@H]1[C@H](O)[C@@H](O)[C@@H](COC(N)=O)O[C@H]1/N=C1\N[C@@H]2[C@H](O)CNC(=O)[C@H]2N1`: the MIC in experiment [1] and in experiment [2] was 8 µg/mL (≈ 12.7 µM) throughout.

`CO[C@H]1/C=C/O[C@@]2(C)Oc3c(C)c(O)c4c(O)c(c(/C=N/N5CCN(C)CC5)c(O)c4c3C2=O)NC(=O)/C(C)=C\C=C\[C@H](C)[C@H](O)[C@@H](C)[C@@H](O)[C@@H](C)[C@H](OC(C)=O)[C@@H]1C` [RIFAMPIN]: the MIC in experiment [1] worked out at 16 µg/mL (≈ 19.4 µM); in experiment [2] it was 32 µg/mL (≈ 38.9 µM).

In the case of `NNC(=O)c1ccncc1` [ISONIAZID], the MIC in experiment [1] and in experiment [2] was 4 µg/mL (≈ 29.2 µM) throughout.

On to `NCCC[C@H](N)CC(=O)NCCC[C@H](N)CC(=O)N[C@@H]1[C@H](O)[C@@H](OC(N)=O)[C@@H](CO)O[C@H]1NC1=N[C@@H]2C(=O)NC[C@@H](O)[C@H]2N1` [STREPTOTHRICIN E], for which the Ratio in experiment [3] and in experiment [4] was 8 throughout. The MIC in experiment [1] is 0.25 µg/mL (≈ 0.396 µM); in experiment [2], 0.5 µg/mL (≈ 0.793 µM).
